Experimental data: ChEMBL document CHEMBL1150536, “Synthesis and pharmacological characterization of l-trans-4-tetrazolylproline (ly300020): A novel systemically-active ampa receptor agonist” (Bioorg Med Chem Lett, 1993)
The source made the active and inactive calls. The rule behind the calls is not given here.

Tests used:
[1] = biological target: Glutamate receptor ionotropic, kainate; experiment: Tested for the ability to displace [3H]kainate (5 nM) binding from Ionotropic glutamate receptor kainate in rat forebrain membranes; type: cell membranes, Membrane
[2] = biological target: Glutamate receptor ionotropic, NMDA 2C (Rattus norvegicus, UniProt Q00961); experiment: Tested for the ability to displace [3H]CGS-19,755 (10 nM) binding in rat forebrain membranes for NMDA receptor; type: cell membranes, Membrane
Chain of Glutamate receptor ionotropic, NMDA 2C (Q00961 whole entry): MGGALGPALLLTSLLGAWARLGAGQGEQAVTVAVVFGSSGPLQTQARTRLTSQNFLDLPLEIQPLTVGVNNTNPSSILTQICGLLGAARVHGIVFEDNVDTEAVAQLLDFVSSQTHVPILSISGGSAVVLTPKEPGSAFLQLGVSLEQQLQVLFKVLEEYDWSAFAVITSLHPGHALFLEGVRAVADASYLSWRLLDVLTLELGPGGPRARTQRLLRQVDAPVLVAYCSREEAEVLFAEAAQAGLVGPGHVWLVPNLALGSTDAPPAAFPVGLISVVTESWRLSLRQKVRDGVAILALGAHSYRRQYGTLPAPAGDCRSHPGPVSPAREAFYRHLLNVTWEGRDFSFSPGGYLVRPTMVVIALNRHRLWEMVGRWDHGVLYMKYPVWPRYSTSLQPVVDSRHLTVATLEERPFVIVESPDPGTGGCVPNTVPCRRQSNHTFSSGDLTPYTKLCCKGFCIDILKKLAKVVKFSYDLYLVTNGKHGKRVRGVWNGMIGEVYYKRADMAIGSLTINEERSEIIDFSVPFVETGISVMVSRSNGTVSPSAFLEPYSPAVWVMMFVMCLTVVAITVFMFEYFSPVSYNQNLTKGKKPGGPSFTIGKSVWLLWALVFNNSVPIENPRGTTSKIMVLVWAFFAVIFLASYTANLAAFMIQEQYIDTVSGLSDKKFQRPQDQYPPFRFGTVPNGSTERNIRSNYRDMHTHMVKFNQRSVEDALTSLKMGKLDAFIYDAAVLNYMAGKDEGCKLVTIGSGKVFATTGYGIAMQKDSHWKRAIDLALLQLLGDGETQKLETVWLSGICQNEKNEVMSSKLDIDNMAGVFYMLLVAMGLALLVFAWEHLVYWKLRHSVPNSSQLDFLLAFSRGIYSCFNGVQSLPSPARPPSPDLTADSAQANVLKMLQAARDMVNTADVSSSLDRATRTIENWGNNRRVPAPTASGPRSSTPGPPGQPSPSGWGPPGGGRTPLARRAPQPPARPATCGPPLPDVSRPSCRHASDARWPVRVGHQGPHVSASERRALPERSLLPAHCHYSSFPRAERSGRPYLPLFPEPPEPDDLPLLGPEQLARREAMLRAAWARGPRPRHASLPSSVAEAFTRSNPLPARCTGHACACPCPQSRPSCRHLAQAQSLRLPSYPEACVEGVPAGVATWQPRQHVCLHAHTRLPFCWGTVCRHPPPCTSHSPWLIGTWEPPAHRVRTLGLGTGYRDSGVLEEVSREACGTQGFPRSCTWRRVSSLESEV

[3] = biological target: Glutamate receptor ionotropic, AMPA (Rattus norvegicus, UniProt P19490+P19491+P19492+P19493); experiment: Tested for the ability to displace [3H]AMPA (5 nM) from Ionotropic glutamate receptor AMPA in rat forebrain membranes; type: cell membranes, Membrane
Rattus norvegicus = organism: Rattus norvegicus; experiment: Tested for the ability to antagonize depolarizations induced by NMDA (40 uM), AMPA (40 uM); insignificant; type: functional

| IC50 [1] [µM] | IC50 [2] [µM] | IC50 [3] [µM] | Compound | Effect (Rattus norvegicus) |
| --- | --- | --- | --- | --- |
| > 100 | > 100 | > 100 | O=C(O)[C@H]1C[C@H](c2nnn[nH]2)CN1 | – |
| > 100 | > 100 | > 100 | O=C(O)[C@H]1CN[C@H](C(=O)O)C1 | – |
| 61 | > 100 | 3.38 | O=C(O)[C@@H]1C[C@@H](c2nnn[nH]2)CN1 | inactive |
